Reference: US9532975B2, “Use of levo-oxiracetam and oxiracetam in preparation of medicines for preventing or treating coma” (CHONGQING RUNZE PHARMACEUTICAL COMPANY LIMITED., priority 2011, dated 2017)

How the values were obtained:
[1] = test system: traumatic brain coma in rats; assay: Traumatic brain coma in rats (Feeney method), coma level score; format: in vivo, SD rats; details: for Remark: animals that survived: 10 animals, 8 h observation, cell wraps: All / survived
[2] = test system: ketamine-induced coma in mice; assay: Ketamine-induced coma in mice, duration of loss of righting reflex; format: in vivo, Kunming mice; details: for Time of Sleep (The duration of reflex action, min): ketamine 120 mg/kg i.p. induced coma
Method: • 1.1 Experimental animal and grouped 150 Kunming mice, male, weight (25.3±1.9) g, provided by the special committee of Sichuan experimental animal farms. (License: SCXK (Chuan) 2008-14). Animal experiments facilities continue to maintain barriers environmental standards. Control of key environmental indicators: the temperature of 20.0-25.0° C., relative humidity of 40-70%. 10-20 air changes/hour, lighting:dark=14 h:10 h. Animals were housed in standard boxes, each box 5.
Mice after three consecutive supine standing for 5 s can not be restored righting reflex recovery after three consecutive sit-stand for the righting reflex. • 1.4 Statistical analysis of data with x±sd was expressed using statistical software SPSS 12.0 for data analysis. The groups were compared using ANOVA, test level: A=0 05. 2. Results

[3] = test system: alcoholic coma mouse model; assay: Alcohol-induced coma in mice, sleep time (duration of loss of righting reflex); format: in vivo; details: for wake-promoting effect on alcoholism-induced coma (in words): doses of Table 8
Method: • 1. Drugs and reagents: L-Oxiracetam, D-Oxiracetam and racemic oxiracetam; naloxone, purchased from Chongqing Yaoyou Pharmaceutical Co., Ltd.; anhydrous ethanol, purchased from Shanghai Chemical Reagent Co., Ltd. Physiological saline is commercially available. Each solution was freshly prepared. • 2. Preparation of ethanol solution: anhydrous ethanol was diluted with saline to produce 30% ethanol solution, freshly prepared. • 3. Experimental animals: Male mice weighing 18-22 grams were provided by the special committee, Sichuan experimental animal farms (License: SCXK (Chuan) 2008-14). Animal experiments facilities continue to maintain barriers environmental standards. Control of key environmental indicators: the temperature of 20.0-25.0° C., relative humidity of 40-70%. 10-20 air changes/hour, lighting:dark=14 h:10 h. Animals were housed in standard boxes, each box had 5. (B) Experimental Methods
1. Preparation of alcoholic coma mouse model: With reference to the literature (M. E L Yacoubi, C. Ledent, M. parmentier, et al Caffeine reduces hypnotic effects of alcohol through adenosine A2A receptor blockade [J] Neuropharmacology, 2003, 45(7):977-985) modeled the process of 30% ethanol solution intraperitoneally (0.2 ml/10 g).
2. Method of determination of states of consciousness of mouse discriminating: According to the literature (Jeffrey R. Stephens, Rene H. Levy. Effects of valproate and citrulline on ammonium-Induced encephalopathy [J] Epilepsia, 1994,35 (1):164-171) performed the determination of states of consciousness: level 1, reduced activity in the cage; level 2, limb ataxia associated with reduced activity; level 3, scrolled when placed in the bottom of the back of the cage (righting reflex), but could not stand; level 4, back into the cage end position cannot be corrected, but the damage manifested as physical stimulation retraction; level 5, righting reflex (Loss of Righting Reflex, LORR) and the lack of response to noxious stimuli. Level 4, 5, considered animal in a coma.
The 150 animals were randomly divided into 10 groups: model control group (saline only); […]; dextral Oxiracetam up two groups, respectively: 90,180 mg/kg group; L oxiracetam set up three groups, namely: 30 mg/kg, 90 mg/kg and 180 mg/kg group; naloxone group, a dose of 1.5mg/kg. After each group were successfully prepared animal models, random tables grouped righting reflex one minute after tail vein injection. The mice were observed duration of righting reflex, that sleep time. Statistical results: the experimental data with x±sd, said comparison between the groups were analyzed using ANOVA and q test, test level: α=0.05.

[4] = in vivo; parameters: species or system Beagle dogs; details: dog, 50 mg/kg
Method: The study of comparing the pharmacokinetic of the racemic oxiracetam and L-oxiracetam determines the dose orally and intravenously to Beagle dogs for 50 mg/kg.
Take six adult Beagle dogs, the numbers of female and male were equal, which were weighted 10.0±0.5 kg and randomly divided into three groups, and each group were two with same numbers of the male and female. Latin square crossover method was used (see Table 1). Beagle dogs were administered orally and intravenously at a dose of 50 mg/kg. L-oxiracetam samples with 99.3% (optically pure) of purity were used. Each route of administration was performed every week. Animals orally administered were fasted for 12 hours […] continued fasting three hours after administration. Blank blood was taken prior to administration. Blood sample were taken 1 mL from forelimbs vein into heparinized tubes in 0.083, 0.25, 0.5, 0.75, 1.0, 1.5, 2.0, 4.0, 6.0, 8.0, 12.0 and 24.0 hours after oral administration, or taken in 0.083, 0.25, 0.5, 0.75, 1.0, 1.5, 2.0, 4.0, 6.0, 8.0, 12.0 and 24.0 hours after intravenous administration, and centrifuged to obtain plasma. The concentrations of drugs in plasma were determined by LC-MS-MS method. The results in the table below 2-7.

[5] = compared with the racemate; cited from earlier work
[6] = traumatic brain coma, 1 mg/kg, levels 1-6 (5 and 6 = coma)
[7] = alcohol-induced coma, 30 mg/kg tail vein injection
[8] = alcohol-induced coma, 180 mg/kg tail vein injection
[9] = both sexes, Beagle, iv, Drug concentrations in plasma
[10] = traumatic brain coma, 125 mg/kg, levels 1-6 (5 and 6 = coma)

In the case of `C=CCN1CC[C@]23c4c5ccc(O)c4O[C@H]2C(=O)CC[C@@]3(O)[C@H]1C5` [Naloxone], the “wake-promoting effect on traumatic coma (in words)” value ([1]; 1 mg/kg, positive drug) is reported as “good wake-promoting effect”, the “Remark: animals that survived” value ([1]; traumatic brain coma, 1 mg/kg) is reported as “All” and the “coma level score, post-traumatic observation point 1 h” value [1, 6] is reported as 4.4 ± 0.96. For the same molecule, the “coma level score, post-traumatic observation point 2 h” value [1, 6] was 3.6 ± 0.84, the “coma level score, post-traumatic observation point 8 h” value [1, 6] was 1.9 ± 0.88 and the “Time of Sleep (The duration of reflex action, min)” value (shortened to “Time of Sleep”) ([2]; 1.5 mg/kg) was 13.5 ± 4.2 min. For the same molecule, the “awaking effect on ketamine-induced coma (in words)” value (shortened to “awaking effect”) ([2]; positive reference drug 1.5 mg/kg) was “significant effect” and the “Time of Sleep” value ([3]; alcohol-induced coma, 1.5 mg/kg tail vein injection) was 60.5 ± 7.8 min.
With `NC(=O)CN1C[C@H](O)CC1=O` [D-Oxiracetam] the “awaking effect” value ([2]; dose range 30-180 mg/kg) was “no effect”, the “Time of Sleep” value ([2]; 30 mg/kg) was 25.6 ± 8.9 min and the “Time of Sleep” value ([2]; 180 mg/kg) was 22.8 ± 6.5 min. For the same molecule, the “Time of Sleep” value [3, 7] was 105.3 ± 15.8 min, the “Time of Sleep” value [3, 8] was 98.8 ± 11.6 min and the “wake-promoting effect on alcoholism-induced coma (in words)” value [3] was “basically had no effect”.
In the case of `NC(=O)CN1CC(O)CC1=O` (racemic) [oxiracetam], the “awaking effect” value ([2]; dose range 150-360 mg/kg) is reported as “also had such effect”, the “Time of Sleep” value ([2]; 60 mg/kg) is reported as 21.3 ± 6.7 min and the “Time of Sleep” value ([2]; 150 mg/kg) is reported as 15.3 ± 6.4 min. The “Time of Sleep” value ([2]; 360 mg/kg) was 14.2 ± 6.2 min, the concentration at 1 h [4, 9] was 30800 ng/mL and the concentration at 1.5 h [4, 9] was 38800 ng/mL. For the same molecule, the concentration at 2 h [4, 9] was 35300 ng/mL, the concentration at 4 h [4, 9] was 13000 ng/mL and the concentration at 6 h [4, 9] was 9350 ng/mL. The “Time of Sleep” value ([3]; alcohol-induced coma, 60 mg/kg tail vein injection) was 96.8 ± 12.7 min, the “Time of Sleep” value ([3]; alcohol-induced coma, 150 mg/kg tail vein injection) was 86.1 ± 9.4 min and the “Time of Sleep” value ([3]; alcohol-induced coma, 360 mg/kg tail vein injection) was 65.1 ± 10.2 min. For the same molecule, the “wake-promoting effect on alcoholism-induced coma (in words)” value [3] was “certain awaking effect”.
For `NC(=O)CN1C[C@@H](O)CC1=O` [L-oxiracetam, (S)-4-hydroxy-2-oxo-pyrrolidineacetamide], the “solubility (in words)” value [5] is listed as “significantly better than the racemate”, the “wake-promoting effect on traumatic coma (in words)” value ([1]; 125 mg/kg, after 1 hour) is listed as “significant improvement in awareness” and the “Remark: animals that survived” value ([1]; traumatic brain coma, 125 mg/kg, 125 mg/kg) is listed as “All”. For the same molecule, the “Remark: animals that survived” value ([1]; traumatic brain coma, 125 mg/kg, listed as left oxiracetam, 125 mg/kg) was “no occurrence of an animal died”, the “coma level score, post-traumatic observation point 1 h” value [1, 10] was 5.1 ± 0.88 and the “coma level score, post-traumatic observation point 2 h” value [1, 10] was 3.8 ± 0.78. For the same molecule, the “coma level score, post-traumatic observation point 4 h” value [1, 10] was 3.0 ± 0.82, the “coma level score, post-traumatic observation point 8 h” value [1, 10] was 2.0 ± 0.67 and the “coma level score, post-traumatic observation point 1 h” value ([1]; traumatic brain coma, 125 mg/kg, levels 1-6 (5 and 6 = coma), listed as left oxiracetam) was 5.1. The “awaking effect” value ([2]; dose range 30-180 mg/kg) was “significant awaking effect”, the “Time of Sleep” value ([2]; 30 mg/kg) was 19.6 ± 5.6 min and the “Time of Sleep” value ([2]; 75 mg/kg) was 15.2 ± 4.9 min. The “Time of Sleep” value ([2]; 180 mg/kg) was 13.8 ± 3.8 min, the “absolute bioavailability estimated through AUC0−∞” value [4] was 65.76±9.12% and the AUC(0-inf) ([4]; iv) was 243 ± 37.8 µg·h/mL. For the same molecule, the “effect of awaking relative to racemic oxiracetam” value ([3]; alcohol-induced coma) was ~2 times, the “Time of Sleep” value [3, 7] was 85.8 ± 10.6 min and the “Time of Sleep” value ([3]; alcohol-induced coma, 75 mg/kg tail vein injection) was 63.5 ± 9.8 min. The “Time of Sleep” value [3, 8] was 48.5 ± 9.1 min and the “wake-promoting effect on alcoholism-induced coma (in words)” value [3] was “obvious”.
